Key:
D-263MG = assay: cells; assay type: functional, cell-based, Homo sapiens; conditions: Homo sapiens, D-263MG
Description: SANGER: Inhibition of human D-263MG cell growth in a cell viability assay.

EFO-21 = assay: cells; assay type: functional, cell-based, Homo sapiens; conditions: Homo sapiens, EFO-21
Description: SANGER: Inhibition of human EFO-21 cell growth in a cell viability assay.

EM-2 = assay: cells; assay type: functional, cell-based; conditions: Homo sapiens
Description: SANGER: Inhibition of human EM-2 cell growth in a cell viability assay.

EPLC-272H = assay: cells; assay type: functional, cell-based; conditions: Homo sapiens
Description: SANGER: Inhibition of human EPLC-272H cell growth in a cell viability assay.

FaDu = assay: cells; assay type: functional, cell-based, Homo sapiens; conditions: Homo sapiens, FaDu
Description: SANGER: Inhibition of human FADU cell growth in a cell viability assay.

GCIY = assay: cells; assay type: functional, cell-based, Homo sapiens; conditions: Homo sapiens, GCIY
Description: SANGER: Inhibition of human GCIY cell growth in a cell viability assay.

H-EMC-SS = assay: cells; assay type: functional, cell-based; conditions: Homo sapiens
Description: SANGER: Inhibition of human H-EMC-SS cell growth in a cell viability assay.

HCC1187 = assay: cells; assay type: functional, cell-based, Homo sapiens; conditions: Homo sapiens, HCC1187
Description: SANGER: Inhibition of human HCC1187 cell growth in a cell viability assay.

HSC-3 = assay: cells; assay type: functional, cell-based, Homo sapiens; conditions: Homo sapiens, HSC-3
Description: SANGER: Inhibition of human HSC-3 cell growth in a cell viability assay.

IGR-1 = assay: cells; assay type: functional, cell-based, Homo sapiens; conditions: Homo sapiens, IGR-1
Description: SANGER: Inhibition of human IGR-1 cell growth in a cell viability assay.

KNS-62 = assay: cells; assay type: functional, cell-based; conditions: Homo sapiens
Description: SANGER: Inhibition of human KNS-62 cell growth in a cell viability assay.

L-428 = assay: cells; assay type: functional, cell-based; conditions: Homo sapiens
Description: SANGER: Inhibition of human L-428 cell growth in a cell viability assay.

LB996-RCC = assay: cells; assay type: functional, cell-based; conditions: Homo sapiens
Description: SANGER: Inhibition of human LB996-RCC cell growth in a cell viability assay.

NBsusSR = assay: cells; assay type: functional, cell-based; conditions: Homo sapiens
Description: SANGER: Inhibition of human NBsusSR cell growth in a cell viability assay.

NCI-H1573 = assay: cells; assay type: functional, cell-based; conditions: Homo sapiens
Description: SANGER: Inhibition of human NCI-H1573 cell growth in a cell viability assay.

NCI-H1666 = assay: cells; assay type: functional, cell-based; conditions: Homo sapiens
Description: SANGER: Inhibition of human NCI-H1666 cell growth in a cell viability assay.

NCI-H2342 = assay: cells; assay type: functional, cell-based; conditions: Homo sapiens
Description: SANGER: Inhibition of human NCI-H2342 cell growth in a cell viability assay.

NCI-H522 = assay: cells; assay type: functional, cell-based, Homo sapiens; conditions: Homo sapiens, NCI-H522
Description: SANGER: Inhibition of human NCI-H522 cell growth in a cell viability assay.

RPMI-2650 = assay: cells; assay type: functional, cell-based, Homo sapiens; conditions: Homo sapiens, RPMI-2650
Description: SANGER: Inhibition of human RPMI-2650 cell growth in a cell viability assay.

SBC-5 = assay: cells; assay type: functional, cell-based, Homo sapiens; conditions: Homo sapiens, SBC-5
Description: SANGER: Inhibition of human SBC-5 cell growth in a cell viability assay.

SCC-4 = assay: cells; assay type: functional, cell-based, Homo sapiens; conditions: Homo sapiens, SCC-4
Description: SANGER: Inhibition of human SCC-4 cell growth in a cell viability assay.

SNU-387 = assay: cells; assay type: functional, cell-based, Homo sapiens; conditions: Homo sapiens, SNU-387
Description: SANGER: Inhibition of human SNU-387 cell growth in a cell viability assay.

SW872 = assay: cells; assay type: functional, cell-based, Homo sapiens; conditions: Homo sapiens, SW872
Description: SANGER: Inhibition of human SW872 cell growth in a cell viability assay.

23132-87 = assay: cells; assay type: functional, cell-based, Homo sapiens; conditions: Homo sapiens
Description: SANGER: Inhibition of human 23132-87 cell growth in a cell viability assay.

8-MG-BA = assay: cells; assay type: functional, cell-based, Homo sapiens; conditions: Homo sapiens, 8-MG-BA
Description: SANGER: Inhibition of human 8-MG-BA cell growth in a cell viability assay.

ABC-1 = assay: cells; assay type: functional, cell-based, Homo sapiens; conditions: Homo sapiens, ABC-1
Description: SANGER: Inhibition of human ABC-1 cell growth in a cell viability assay.

TGBC11TKB = assay: cells; assay type: functional, cell-based; conditions: Homo sapiens
Description: SANGER: Inhibition of human TGBC11TKB cell growth in a cell viability assay.

CFPAC-1 = assay: cells; assay type: functional, cell-based; conditions: Homo sapiens
Description: SANGER: Inhibition of human CFPAC-1 cell growth in a cell viability assay.

COLO-668 = assay: cells; assay type: functional, cell-based, Homo sapiens; conditions: Homo sapiens, COLO-668
Description: SANGER: Inhibition of human COLO-668 cell growth in a cell viability assay.

COLO-684 = assay: cells; assay type: functional, cell-based; conditions: Homo sapiens
Description: SANGER: Inhibition of human COLO-684 cell growth in a cell viability assay.

EB2 = assay: cells; assay type: functional, cell-based; conditions: Homo sapiens
Description: SANGER: Inhibition of human EB2 cell growth in a cell viability assay.

EC-GI-10 = assay: cells; assay type: functional, cell-based, Homo sapiens; conditions: Homo sapiens, EC-GI-10
Description: SANGER: Inhibition of human EC-GI-10 cell growth in a cell viability assay.

ECC4 = assay: cells; assay type: functional, cell-based; conditions: Homo sapiens
Description: SANGER: Inhibition of human ECC4 cell growth in a cell viability assay.

EHEB = assay: cells; assay type: functional, cell-based; conditions: Homo sapiens
Description: SANGER: Inhibition of human EHEB cell growth in a cell viability assay.

HCC1599 = assay: cells; assay type: functional, cell-based; conditions: Homo sapiens
Description: SANGER: Inhibition of human HCC1599 cell growth in a cell viability assay.

IMR-5 = assay: cells; assay type: functional, cell-based; conditions: Homo sapiens
Description: SANGER: Inhibition of human IMR-5 cell growth in a cell viability assay.

IST-SL2 = assay: cells; assay type: functional, cell-based; conditions: Homo sapiens
Description: SANGER: Inhibition of human IST-SL2 cell growth in a cell viability assay.

KARPAS-422 = assay: cells; assay type: functional, cell-based; conditions: Homo sapiens
Description: SANGER: Inhibition of human KARPAS-422 cell growth in a cell viability assay.

LC4-1 = assay: cells; assay type: functional, cell-based; conditions: Homo sapiens
Description: SANGER: Inhibition of human LC4-1 cell growth in a cell viability assay.

LP-1 = assay: cells; assay type: functional, cell-based; conditions: Homo sapiens
Description: SANGER: Inhibition of human LP-1 cell growth in a cell viability assay.

MDA-MB-134-VI = assay: cells; assay type: functional, cell-based; conditions: Homo sapiens
Description: SANGER: Inhibition of human MDA-MB-134-VI cell growth in a cell viability assay.

NCI-H187 = assay: cells; assay type: functional, cell-based; conditions: Homo sapiens
Description: SANGER: Inhibition of human NCI-H187 cell growth in a cell viability assay.

NCI-H1882 = assay: cells; assay type: functional, cell-based; conditions: Homo sapiens
Description: SANGER: Inhibition of human NCI-H1882 cell growth in a cell viability assay.

NCI-H1963 = assay: cells; assay type: functional, cell-based; conditions: Homo sapiens
Description: SANGER: Inhibition of human NCI-H1963 cell growth in a cell viability assay.

NCI-H716 = assay: cells; assay type: functional, cell-based; conditions: Homo sapiens
Description: SANGER: Inhibition of human NCI-H716 cell growth in a cell viability assay.

SNU-16 = assay: cells; assay type: functional, cell-based; conditions: Homo sapiens
Description: SANGER: Inhibition of human NCI-SNU-16 cell growth in a cell viability assay.

PF-382 = assay: cells; assay type: functional, cell-based; conditions: Homo sapiens
Description: SANGER: Inhibition of human PF-382 cell growth in a cell viability assay.

RL = assay: cells; assay type: functional, cell-based; conditions: Homo sapiens
Description: SANGER: Inhibition of human RL cell growth in a cell viability assay.

RL95-2 = assay: cells; assay type: functional, cell-based; conditions: Homo sapiens
Description: SANGER: Inhibition of human RL95-2 cell growth in a cell viability assay.

RPMI-6666 = assay: cells; assay type: functional, cell-based; conditions: Homo sapiens
Description: SANGER: Inhibition of human RPMI-6666 cell growth in a cell viability assay.

Raji = assay: cells; assay type: functional, cell-based; conditions: Homo sapiens
Description: SANGER: Inhibition of human Raji cell growth in a cell viability assay.

SIG-M5 = assay: cells; assay type: functional, cell-based; conditions: Homo sapiens
Description: SANGER: Inhibition of human SIG-M5 cell growth in a cell viability assay.

SU-DHL-1 = assay: SANGER: Inhibition of human SU-DHL-1 cell growth in a cell viability assay.; assay type: functional, cell-based
UACC-812 = assay: cells; assay type: functional, cell-based; conditions: Homo sapiens
Description: SANGER: Inhibition of human UACC-812 cell growth in a cell viability assay.

WSU-NHL = assay: cells; assay type: functional, cell-based; conditions: Homo sapiens
Description: SANGER: Inhibition of human WSU-NHL cell growth in a cell viability assay.

YT = assay: cells; assay type: functional, cell-based; conditions: Homo sapiens
Description: SANGER: Inhibition of human YT cell growth in a cell viability assay.

CMK = assay: cells; assay type: functional, cell-based; conditions: Homo sapiens
Description: SANGER: Inhibition of human CMK cell growth in a cell viability assay.

BOKU = assay: cells; assay type: functional, cell-based; conditions: Homo sapiens
Description: SANGER: Inhibition of human BOKU cell growth in a cell viability assay.

## O=c1cc(-c2cccc3c2Sc2ccccc2S3)oc(N2CCOCC2)c1 [KU-55933]
D-263MG
  IC50: > 10 µM
EFO-21
  IC50: > 10 µM
EM-2
  IC50: > 10 µM
EPLC-272H
  IC50: > 10 µM
FaDu
  IC50: > 10 µM
GCIY
  IC50: > 10 µM
H-EMC-SS
  IC50: > 10 µM
HCC1187
  IC50: > 10 µM
HSC-3
  IC50: > 10 µM
IGR-1
  IC50: > 10 µM
KNS-62
  IC50: > 10 µM
L-428
  IC50: > 10 µM
LB996-RCC
  IC50: > 10 µM
NBsusSR
  IC50: > 10 µM
NCI-H1573
  IC50: > 10 µM
NCI-H1666
  IC50: > 10 µM
NCI-H2342
  IC50: > 10 µM
NCI-H522
  IC50: > 10 µM
RPMI-2650
  IC50: > 10 µM
SBC-5
  IC50: > 10 µM
SCC-4
  IC50: > 10 µM
SNU-387
  IC50: > 10 µM
SW872
  IC50: > 10 µM
23132-87
  IC50: > 10 µM
8-MG-BA
  IC50: > 10 µM
ABC-1
  IC50: > 10 µM
TGBC11TKB
  IC50: > 10 µM
CFPAC-1
  IC50: > 10 µM
COLO-668
  IC50: > 10 µM
COLO-684
  IC50: > 10 µM

## CS(=O)(=O)CCNCc1ccc(-c2ccc3ncnc(Nc4ccc(OCc5cccc(F)c5)c(Cl)c4)c3c2)o1 [LAPATINIB]
D-263MG
  IC50: > 2 µM
EB2
  IC50: > 2 µM
EC-GI-10
  IC50: > 2 µM
ECC4
  IC50: > 2 µM
EHEB
  IC50: > 2 µM
EM-2
  IC50: > 2 µM
GCIY
  IC50: > 2 µM
HCC1187
  IC50: > 2 µM
HCC1599
  IC50: > 2 µM
IMR-5
  IC50: > 2 µM
IST-SL2
  IC50: > 2 µM
KARPAS-422
  IC50: > 2 µM
L-428
  IC50: > 2 µM
LB996-RCC
  IC50: 1.36 µM
LC4-1
  IC50: > 2 µM
LP-1
  IC50: > 2 µM
MDA-MB-134-VI
  IC50: > 2 µM
NCI-H187
  IC50: > 2 µM
NCI-H1882
  IC50: > 2 µM
NCI-H1963
  IC50: > 2 µM
NCI-H716
  IC50: > 2 µM
SNU-16
  IC50: > 2 µM
PF-382
  IC50: > 2 µM
RL
  IC50: > 2 µM
RL95-2
  IC50: > 2 µM
RPMI-6666
  IC50: > 2 µM
Raji
  IC50: > 2 µM
SIG-M5
  IC50: > 2 µM
SU-DHL-1
  IC50: > 2 µM
SW872
  IC50: > 2 µM
8-MG-BA
  IC50: > 2 µM
UACC-812
  IC50: > 2 µM
WSU-NHL
  IC50: > 2 µM
YT
  IC50: > 2 µM
CMK
  IC50: > 2 µM
COLO-668
  IC50: > 2 µM
COLO-684
  IC50: > 2 µM

## C[C@]1(O)C[C@@H](c2nc(-c3ccc4ccc(-c5ccccc5)nc4c3)c3c(N)nccn32)C1 [LINSITINIB]
D-263MG
  IC50: > 2.56 µM
EB2
  IC50: > 2.56 µM
EC-GI-10
  IC50: > 2.56 µM
ECC4
  IC50: > 2.56 µM
EFO-21
  IC50: > 2.56 µM
EHEB
  IC50: > 2.56 µM
EM-2
  IC50: > 2.56 µM
FaDu
  IC50: > 2.56 µM
GCIY
  IC50: > 2.56 µM
HCC1187
  IC50: > 2.56 µM
HCC1599
  IC50: > 2.56 µM
HSC-3
  IC50: > 2.56 µM
IGR-1
  IC50: > 2.56 µM
IMR-5
  IC50: > 2.56 µM
IST-SL2
  IC50: > 2.56 µM
KARPAS-422
  IC50: > 2.56 µM
L-428
  IC50: > 2.56 µM
LB996-RCC
  IC50: > 2.56 µM
LC4-1
  IC50: > 2.56 µM
LP-1
  IC50: 2.26 µM
MDA-MB-134-VI
  IC50: > 2.56 µM
NCI-H1573
  IC50: > 2.56 µM
NCI-H187
  IC50: > 2.56 µM
NCI-H1882
  IC50: > 2.56 µM
NCI-H1963
  IC50: > 2.56 µM
NCI-H2342
  IC50: > 2.56 µM
NCI-H522
  IC50: > 2.56 µM
NCI-H716
  IC50: > 2.56 µM
SNU-16
  IC50: > 2.56 µM
PF-382
  IC50: > 2.56 µM
RL
  IC50: > 2.56 µM
RPMI-2650
  IC50: > 2.56 µM
RPMI-6666
  IC50: > 2.56 µM
Raji
  IC50: > 2.56 µM
SBC-5
  IC50: > 2.56 µM
SCC-4
  IC50: > 2.56 µM
SIG-M5
  IC50: 0.536 µM
SNU-387
  IC50: 0.994 µM
SU-DHL-1
  IC50: > 2.56 µM
SW872
  IC50: > 2.56 µM
23132-87
  IC50: > 2.56 µM
8-MG-BA
  IC50: > 2.56 µM
ABC-1
  IC50: 0.904 µM
BOKU
  IC50: > 2.56 µM
UACC-812
  IC50: > 2.56 µM
WSU-NHL
  IC50: > 2.56 µM
YT
  IC50: > 2.56 µM
CMK
  IC50: 0.999 µM
COLO-668
  IC50: 0.847 µM
COLO-684
  IC50: > 2.56 µM

— ChEMBL document CHEMBL1201861, “Genomics of Drug Sensitity in Cancer screening data, Wellcome Trust Sanger Institute”
